Common to all, as to assay: NCI tumour cell line growth inhibition, 48 h
In test [1] the test system is OVCAR-3 ovarian.
Test [2] deals with UACC-62 melanoma.
For test [3], the system named is HCT-116 colon.
Test [4] deals with PC-3 prostate.
Test [5] has as its system SN12C renal.
Test [6] has as its system DU-145 prostate.
For test [7], the system named is MDA-MB-435.
The subject of test [8] is SW-620 colon.
Test [9] has as its system KM12 colon.
Test [10] has as its system MOLT-4 leukemia.

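Method: 48-hour compound exposure of cells in 96-well plates, five concentrations, linear interpolation of endpoints. The concentration for 50% growth inhibition is given as GI50. TGI: concentration producing complete growth inhibition.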 Bounds are passed on as bounds.

With `Nc1nc(SCc2ccccn2)c2ncn(C3CCCC3)c2n1`, the TGI in test [1], in test [2], in [3], in [4], in test [5] and in test [6] was more than 100 µM throughout. The TGI in test [7], in [8] and in test [9] was more than 100 µM each time.
In the case of `CN(C)c1cccc2c(S(=O)(=O)N[C@H]3CC[C@H]4[C@@H]5CCc6cc(O)ccc6[C@H]5CC[C@]34C)cccc12`, the GI50 was 3.14 µM in test [10]; 2.33 µM in test [1]; 1.55 µM in test [2]; 2.27 µM in test [3]; 2.36 µM in test [4]; 1.64 µM in [5]. The GI50 in test [6] is 2.71 µM; in test [7] it was 1.15 µM; in test [8], 2.72 µM. In addition, the TGI in [10] is more than 100 µM; in test [1], 6.26 µM; in test [2], 3.46 µM; in [3], 5.85 µM; in [4], more than 100 µM; in [5] it was 3.43 µM. Also, the TGI in [6] stood at 8.51 µM; in test [7], 2.69 µM; in test [8], 14 µM.
For the compound `COc1ccc(-c2nc3sc(C)cn3c2/C=C/C(=O)c2cc(OC)c(OC)c(OC)c2)cc1`, the GI50 is 2.34 µM in test [1]; 2.82 µM in test [2]; 3.8 µM in test [3]; 2.28 µM in [4]; 4.07 µM in test [5]; 3.69 µM in test [6]. In addition, the GI50 in [7] was 2.61 µM; in test [9] it was 2.69 µM. Further, the TGI in test [1] is 5.83 µM; in test [2], more than 100 µM; in [3], more than 100 µM; in test [4] it was 7.17 µM; in test [5], more than 100 µM; in test [6], more than 100 µM. The TGI in test [7] is 7.49 µM; in test [9], 6.39 µM.
`COc1ccc(Cl)cc1Nc1nc(C(F)(F)F)ccc1C(=O)N/N=C/c1c(Cl)cccc1Cl`: the GI50 in test [10] was 2.36 µM; in test [1], 1.59 µM; in [2] it was 7.16 µM; in test [3], 3.3 µM; in test [5], 8.78 µM; in [6], 5.91 µM. Further, the GI50 in test [7] was more than 100 µM. In addition, the TGI in test [10] was 10.7 µM; in test [1], 4.32 µM; in test [2] it was more than 100 µM; in test [3], more than 100 µM; in test [5], more than 100 µM; in [6], more than 100 µM. The TGI in test [7] was more than 100 µM.
Consider `O=[N+]([O-])c1ccc(C(c2c[nH]c3ccccc23)c2c[nH]c3ccccc23)cc1`, for which the TGI in [10] came out at 40.9 µM; in test [1], 8.31 µM; in test [2] it was 26.5 µM; in [4], 28.4 µM; in test [5], 35.2 µM; in test [6] it was 20.6 µM. Besides, the TGI turned out to be 32.3 µM in test [7], 27.9 µM in [8] and 28.1 µM in [9].
On to `CC(=O)n1c(COS(C)(=O)=O)nc2ccccc21`, for which the TGI in test [1], in [2], in test [3], in [4], in test [5] and in test [6] was more than 100 µM throughout. The TGI in test [7], in [8] and in test [9] was more than 100 µM each time.
On to `COc1cc2c3c(n(C)c(=O)c2cc1OC)-c1cc2c(cc1/C3=C\CCCCCN)OCO2`, for which the GI50 in test [1] is 2.79 µM; in [2], 2.56 µM; in test [5], 0.271 µM; in [6] it was 1.88 µM; in [7], 4.09 µM; in [9], less than 0.01 µM. The TGI was 22.1 µM in [1]; 25.3 µM in test [2]; 18.4 µM in [5]; 23.1 µM in [6]; more than 90.6 µM in test [7]; 90.1 µM in [9].
`O=c1oc2cc(OS(=O)(=O)c3ccc(F)cc3)ccc2c2c1CCCCC2`: the GI50 in [10] is more than 100 µM; in [1] it was more than 100 µM; in test [3] it was 6.24 µM; in [5] it was more than 100 µM; in [6], more than 100 µM; in [7], more than 100 µM. Further, the TGI in test [10], in test [1], in test [3], in test [5], in test [6] and in [7] was more than 100 µM each time.
For the compound `CCC[CH2][Sn-]([CH2]CCC)([CH2]CCC)[O]c1cc(Cl)c(Cl)cc1Cl`, the GI50 in test [10] was 0.167 µM; in [1] it was 0.176 µM; in test [2], 0.152 µM; in test [3], 0.154 µM; in test [4] it was 0.207 µM; in [5], 0.164 µM. Also, the GI50 in test [7] is 0.16 µM; in test [8] it was 0.207 µM; in test [9] it was 0.195 µM. The TGI in test [10] was 0.545 µM; in test [1], 0.365 µM; in [2], 0.394 µM; in test [3], 0.318 µM; in [4], 0.458 µM; in [5] it was 0.338 µM. In addition, the TGI was 0.359 µM in test [7], 0.44 µM in [8] and 0.402 µM in test [9].
With `O=C(O)c1c(-c2cccc3ccccc23)sc(-c2cccc3ccccc23)c1C(=O)O`, the TGI is 85.7 µM in test [10]; more than 100 µM in test [1]; more than 100 µM in test [2]; more than 100 µM in [3]; more than 100 µM in [5]; more than 100 µM in test [8]. The compound also displayed a TGI in [9] of more than 100 µM.
For `N#Cc1c(Sc2ccccc2N)cccc1Sc1ccccc1N`, the GI50 in test [10] was 22.2 µM; in [2] it was 14.7 µM; in test [3] it was 71.9 µM; in [5], 42.1 µM; in [7] it was 43.2 µM; in [8] it was 79.8 µM. In addition, the GI50 in test [9] is 66.7 µM.

The values are drawn from PubChem BioAssay (NCI).
